Data as given in ChEMBL document CHEMBL1149031, “New bioactive taxoids from cell cultures of Taxus baccata” (1994).

Assays:
Bos taurus [1] = organism: Bos taurus; assay: Ratio of compound ED50 to taxol ED50 for bovine brain tubulin assembly at 1.5 mg/ml of tubulin concentration
Bos taurus [2] = organism: Bos taurus; assay: Induction of bovine brain tubulin assembly at 1 mg/ml of tubulin concentration
Bos taurus [3] = organism: Bos taurus; assay: Ratio of compound ED50 to taxol ED50 for bovine brain tubulin assembly at 1 mg/ml of tubulin concentration
Bos taurus [4] = organism: Bos taurus; assay: Induction of bovine brain tubulin assembly at 1.5 mg/ml of tubulin concentration
SF-539 = assay: Cytotoxicity against human SF539 cells; type: functional
SNB-75 = assay: Cytotoxicity against human SNB75 cells; type: functional; details: for CC50: read-out: LC50 (the source's name)
OVCAR-3 = assay: Cytotoxicity against human OVCAR-3 cells; type: functional
DMS-114 = assay: Cytotoxicity against human DMS114 cells; type: functional; details: for CC50: read-out: LC50 (the source's name)
HOP-62 = assay: Cytotoxicity against human HOP62 cells; type: functional
NCI-H460 = assay: Cytotoxicity against human NCI-H460 cells; type: functional
COLO 205 = assay: Cytotoxicity against human COLO205 cells; type: functional; details: for CC50: read-out: LC50 (the source's name)

SMILES | Ratio ED50 (Bos taurus [3]) | Ratio ED50 (Bos taurus [1]) | ED50 (Bos taurus [2]) | ED50 (Bos taurus [4]) | GI50 (SF-539) | TGI (SF-539) | GI50 (SNB-75) | TGI (SNB-75) | CC50 (SNB-75) | GI50 (OVCAR-3) | TGI (OVCAR-3) | GI50 (DMS-114) | TGI (DMS-114) | CC50 (DMS-114) | GI50 (HOP-62) | TGI (HOP-62) | GI50 (NCI-H460) | TGI (NCI-H460) | GI50 (COLO 205) | TGI (COLO 205) | also measured
C/C=C(\C)C(=O)N[C@@H](c1ccccc1)[C@@H](O)C(=O)O[C@H]1C[C@@]2(O)[C@@H](OC(=O)c3ccccc3)[C@@H]3[C@]4(OC(C)=O)CO[C@@H]4C[C@H](O)[C@@]3(C)C(=O)[C@H](OC(C)=O)C(=C1C)C2(C)C | 1.05 | 1.11 | 850 nM | 950 nM |  |  |  |  |  |  |  |  |  |  |  |  |  |  |  |  | 
CCCCCC(=O)N[C@@H](c1ccccc1)[C@@H](O)C(=O)O[C@H]1C[C@@]2(O)[C@@H](OC(=O)c3ccccc3)[C@@H]3[C@]4(OC(C)=O)CO[C@@H]4C[C@H](O)[C@@]3(C)C(=O)[C@H](O)C(=C1C)C2(C)C | 2.57 |  | 2960 nM |  |  |  |  |  |  |  |  |  |  |  |  |  |  |  |  |  | 
CC(=O)O[C@H]1C(=O)[C@@]2(C)[C@H]([C@H](OC(=O)c3ccccc3)[C@]3(O)C[C@H](OC(=O)[C@H](O)[C@@H](NC(=O)c4ccccc4)c4ccccc4)C(C)=C1C3(C)C)[C@]1(OC(C)=O)CO[C@@H]1C[C@@H]2O [PACLITAXEL] |  |  | 950 nM | 760 nM | 3.66 nM | 89.9 nM | 8.08 nM | 77.3 nM | > 1000 nM | 19.7 nM | 48.7 nM | 12.3 nM | 61.2 nM | > 1000 nM | 67.1 nM | > 1000 nM | 21.9 nM | > 1000 nM | 1.76 nM | 43.2 nM | CC50 (SF-539; read-out: LC50 (the source's name)): > 25000 nM; CC50 (COLO 205): 145 nM
CCCCCC(=O)N[C@@H](c1ccccc1)[C@@H](O)C(=O)O[C@H]1C[C@@]2(O)[C@@H](OC(=O)c3ccccc3)[C@@H]3[C@]4(OC(C)=O)CO[C@@H]4C[C@H](O)[C@@]3(C)C(=O)[C@H](OC(C)=O)C(=C1C)C2(C)C [TAXOL C] | 1.05 | 1.82 | 1000 nM | 1400 nM | < 10 nM | < 10 nM | < 10 nM | 19.2 nM | > 100000 nM | < 10 nM | < 10 nM | < 10 nM | 23.8 nM | 21700 nM | < 10 nM | 12.1 nM | < 10 nM | 349 nM | < 10 nM | 22.9 nM | LC50 (OVCAR-3): > 100000 nM; LC50 (concentration killing 50% of cells) (HOP-62): 32000 nM; LC50 (NCI-H460): 69800 nM; CC50 (COLO 205): 23300 nM

Further lines, with some results ahead:

Ratio ED50 (Bos taurus [3]) | SMILES | Ratio ED50 (Bos taurus [1]) | ED50 (Bos taurus [2]) | ED50 (Bos taurus [4]) | GI50 (SF-539) | TGI (SF-539) | GI50 (SNB-75) | TGI (SNB-75) | CC50 (SNB-75) | GI50 (OVCAR-3) | TGI (OVCAR-3) | GI50 (DMS-114) | TGI (DMS-114) | CC50 (DMS-114) | GI50 (HOP-62) | TGI (HOP-62) | GI50 (NCI-H460) | TGI (NCI-H460) | GI50 (COLO 205) | TGI (COLO 205) | also measured
2.04 | CCCC(=O)N[C@@H](c1ccccc1)[C@@H](O)C(=O)O[C@H]1C[C@@]2(O)[C@@H](OC(=O)c3ccccc3)[C@@H]3[C@]4(OC(C)=O)CO[C@@H]4C[C@H](O)[C@@]3(C)C(=O)[C@H](OC(C)=O)C(=C1C)C2(C)C |  | 2350 nM |  |  |  |  |  |  |  |  |  |  |  |  |  |  |  |  |  | 
1.66 | CCCCCC(=O)N(C)[C@@H](c1ccccc1)[C@@H](O)C(=O)O[C@H]1C[C@@]2(O)[C@@H](OC(=O)c3ccccc3)[C@@H]3[C@]4(OC(C)=O)CO[C@@H]4C[C@H](O)[C@@]3(C)C(=O)[C@H](OC(C)=O)C(=C1C)C2(C)C |  | 1910 nM |  |  |  |  |  |  |  |  |  |  |  |  |  |  |  |  |  | 
